Measurements as given in PubChem BioAssay AID248 (DTP/NCI, 2004).
Values joined by “and” are separate entries in the source; they are usually repeats but may differ in a detail not shown here. Equal entries are not always repeated. Toxic doses and inconclusive results are not listed. Rule as the data show it: active = T/C of 150% or more; inactive = T/C below 125%.

System: L1210 leukemia ip in BDF1 mice, survival T/C
Test: NCI In Vivo Anticancer Drug Screen. Data for tumor model L1210 Leukemia (intraperitoneal) in B6D2F1 (BDF1) mice
Conditions: endpoint: mean survival time, higher = longer survival
Method in brief: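 Read-out is survival time, reported as the treated-group measurement over the vehicle-control measurement.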

[1] = dose: 100.0 mg/kg/injection, schedule: Q01DX001 (ip), vehicle: carboxymethylcellulose (CMC)
[2] = dose: 200.0 mg/kg/injection, schedule: Q01DX001 (ip), vehicle: carboxymethylcellulose (CMC)
[3] = dose: 400.0 mg/kg/injection, schedule: Q01DX001 (ip), vehicle: carboxymethylcellulose (CMC)
[4] = dose: 100.0 mg/kg/injection, schedule: Q01DX001 (ip), vehicle: Klucel (hydroxypropylcellulose) (HPC)
[5] = dose: 100.0 mg/kg/injection, schedule: Q04DX002 (ip), vehicle: Klucel (hydroxypropylcellulose) (HPC)
[6] = dose: 200.0 mg/kg/injection, schedule: Q04DX002 (ip), vehicle: Klucel (hydroxypropylcellulose) (HPC)
[7] = dose: 400.0 mg/kg/injection, schedule: Q04DX002 (ip), vehicle: Klucel (hydroxypropylcellulose) (HPC)
[8] = dose: 100.0 mg/kg/injection, schedule: Q01DX009 (ip), vehicle: saline with Tween-80
[9] = dose: 200.0 mg/kg/injection, schedule: Q01DX009 (ip), vehicle: saline with Tween-80
[10] = dose: 400.0 mg/kg/injection, schedule: Q01DX009 (ip), vehicle: saline with Tween-80
[11] = dose: 100.0 mg/kg/injection, schedule: Q01DX009 (ip), vehicle: Klucel (hydroxypropylcellulose) (HPC)
[12] = dose: 200.0 mg/kg/injection, schedule: Q01DX009 (ip), vehicle: Klucel (hydroxypropylcellulose) (HPC)
[13] = dose: 400.0 mg/kg/injection, schedule: Q01DX009 (ip), vehicle: Klucel (hydroxypropylcellulose) (HPC)
[14] = dose: 100.0 mg/kg/injection, schedule: Q01DX001 (ip), vehicle: saline with Tween-80
[15] = dose: 200.0 mg/kg/injection, schedule: Q01DX001 (ip), vehicle: saline with Tween-80
[16] = dose: 12.5 mg/kg/injection, schedule: Q04DX003 (ip), vehicle: Klucel (hydroxypropylcellulose) (HPC)
[17] = dose: 25.0 mg/kg/injection, schedule: Q04DX003 (ip), vehicle: Klucel (hydroxypropylcellulose) (HPC)
[18] = dose: 100.0 mg/kg/injection, schedule: Q04DX003 (ip), vehicle: saline with Tween-80
[19] = dose: 200.0 mg/kg/injection, schedule: Q04DX003 (ip), vehicle: saline with Tween-80
[20] = dose: 400.0 mg/kg/injection, schedule: Q04DX003 (ip), vehicle: saline with Tween-80
[21] = dose: 50.0 mg/kg/injection, schedule: Q01DX001 (ip), vehicle: Klucel (hydroxypropylcellulose) (HPC)

Measured: T/C

O=C(C#Cc1ccccc1)[O][Sn]([c]1ccccc1)([c]1ccccc1)[c]1ccccc1
inactive: dose: 1.56 mg/kg/injection, schedule: Q01DX009 (ip), vehicle: saline 102 % of control | dose: 3.12 mg/kg/injection, schedule: Q01DX009 (ip), vehicle: saline 94 % of control | dose: 6.25 mg/kg/injection, schedule: Q01DX009 (ip), vehicle: saline 96 % of control and 108 % of control

COc1cc(C)c(C(=O)c2ccccc2N)cc1OC
inactive: [1] 105 % of control | [2] 118 % of control | [3] 96 % of control

CCCCCCCCCCCCCCCCCC[N+]1(Cc2ccccc2)CCOCC1
inactive: [4] 110 % of control

COc1cc(C(C)=O)ccc1O
inactive: [5] 99 % of control | [6] 89 % of control | [7] 89 % of control

COc1ccc(C(=O)C(C)C(O)C(=O)O)c(O)c1C (centres undefined)
inactive: [8] 96 % of control | dose: 100.0 mg/kg/injection, schedule: Q04DX003 (ip), vehicle: saline 97 % of control | [9] 100 % of control | dose: 200.0 mg/kg/injection, schedule: Q04DX003 (ip), vehicle: saline 94 % of control | [10] 102 % of control | dose: 400.0 mg/kg/injection, schedule: Q04DX003 (ip), vehicle: saline 98 % of control

Cc1ccc2cc3c4ccccc4ccc3[n+](C)c2c1
inactive: dose: 75.0 mg/kg/injection, schedule: Q01DX001 (ip), vehicle: carboxymethylcellulose (CMC) 100 % of control | dose: 150.0 mg/kg/injection, schedule: Q01DX001 (ip), vehicle: carboxymethylcellulose (CMC) 100 % of control | dose: 300.0 mg/kg/injection, schedule: Q01DX001 (ip), vehicle: carboxymethylcellulose (CMC) 102 % of control

O=C(c1ccccc1)N1CCN(C(=O)c2ccccc2)C1
inactive: [11] 91 % of control | [12] 98 % of control | [13] 104 % of control

COc1ccccc1C1CCCCC1OS(C)(=O)=O (centres undefined)
inactive: [1] 103 % of control | [2] 111 % of control | [3] 92 % of control

CCOC(=O)C1C(=O)C(C(=O)Nc2ccccc2)C(=O)C(C(=O)OCC)C1c1ccc(OC(C)=O)cc1 (centres undefined)
inactive: dose: 50.0 mg/kg/injection, schedule: Q01DX001 (ip), vehicle: saline with Tween-80 94 % of control | [14] 100 % of control | [15] 96 % of control

CCC(C#N)N1CC1 (centres undefined)
inactive: dose: 15.0 mg/kg/injection, schedule: Q01DX001 (ip), vehicle: saline 94 % of control | dose: 30.0 mg/kg/injection, schedule: Q01DX001 (ip), vehicle: saline 104 % of control

O=C(NCCCCN1CC1)C(=O)Nc1ccccc1
inactive: [16] 97 % of control | [17] 93 % of control | dose: 50.0 mg/kg/injection, schedule: Q04DX003 (ip), vehicle: Klucel (hydroxypropylcellulose) (HPC) 98 % of control | dose: 100.0 mg/kg/injection, schedule: Q04DX003 (ip), vehicle: Klucel (hydroxypropylcellulose) (HPC) 103 % of control

CCCCNC(=O)CS(=O)(=O)c1ccc(Cl)cc1
inactive: [18] 94 % of control | [19] 100 % of control | [20] 94 % of control

CCCCCCCCCCCCCCCSc1ccc(Br)cc1
inactive: [18] 97 % of control | [19] 102 % of control | [20] 94 % of control

NC(=NC1CCCCC1)c1ccc(C(=O)OCc2ccccc2)cc1
inactive: [1] 94 % of control | [2] 89 % of control | [3] 94 % of control

O=C(Nc1cccc2ccccc12)Oc1cccc2cccnc12
inactive: [21] 96 % of control | [4] 105 % of control | dose: 200.0 mg/kg/injection, schedule: Q01DX001 (ip), vehicle: Klucel (hydroxypropylcellulose) (HPC) 105 % of control

[I][Pb]([c]1ccccc1)([c]1ccccc1)[c]1ccccc1
inactive: [16] 98 % of control | [17] 94 % of control

OCC1OC(n2ccc3cncnc32)C(O)C1O (centres undefined)
inactive: dose: 5.0 mg/kg/injection, schedule: Q01DX001 (ip), vehicle: saline 106 % of control | dose: 10.0 mg/kg/injection, schedule: Q01DX001 (ip), vehicle: saline 109 % of control | dose: 20.0 mg/kg/injection, schedule: Q01DX001 (ip), vehicle: saline 106 % of control | dose: 40.0 mg/kg/injection, schedule: Q01DX001 (ip), vehicle: saline 106 % of control

Nc1nc(Cl)[nH]c(=O)n1
inactive: dose: 12.5 mg/kg/injection, schedule: Q01DX001 (ip), vehicle: Klucel (hydroxypropylcellulose) (HPC) 105 % of control | dose: 25.0 mg/kg/injection, schedule: Q01DX001 (ip), vehicle: Klucel (hydroxypropylcellulose) (HPC) 97 % of control | [21] 100 % of control

CC(=O)OCC1OC(Sc2ccc([N+](=O)[O-])cc2[N+](=O)[O-])C(OC(C)=O)C(OC(C)=O)C1OC(C)=O (centres undefined)
inactive: [14] 96 % of control | [15] 101 % of control | dose: 400.0 mg/kg/injection, schedule: Q01DX001 (ip), vehicle: saline with Tween-80 93 % of control

C/C(=N\N1CCCCC1)c1ccc(NC(=O)C(Cl)Cl)cc1
inactive: [8] 106 % of control | [9] 97 % of control | [10] 89 % of control

COC(=O)c1ccccc1NC(=O)N(c1ccccc1)c1ccccc1
inactive: [5] 93 % of control | [6] 97 % of control | [7] 101 % of control

O=C(Nc1cccc(C(F)(F)F)c1)Nc1nccs1
inactive: [11] 100 % of control | [5] 94 % of control | [12] 115 % of control | [6] 108 % of control | [13] 92 % of control | [7] 89 % of control

O=C1CCCC1CNCc1ccccc1 (centres undefined)
inactive: dose: 75.0 mg/kg/injection, schedule: Q01DX001 (ip), vehicle: saline 103 % of control | dose: 150.0 mg/kg/injection, schedule: Q01DX001 (ip), vehicle: saline 100 % of control

CC(=O)N(C)c1ccc(NC(=O)Nc2ccc(F)cc2)cc1
inactive: [1] 97 % of control | dose: 100.0 mg/kg/injection, schedule: Q01DX009 (ip), vehicle: carboxymethylcellulose (CMC) 95 % of control and 103 % of control | dose: 100.0 mg/kg/injection, schedule: Q04DX002 (ip), vehicle: carboxymethylcellulose (CMC) 95 % of control and 97 % of control and 90 % of control | dose: 100.0 mg/kg/injection, schedule: Q04DX003 (ip), vehicle: carboxymethylcellulose (CMC) 104 % of control | [2] 96 % of control | dose: 200.0 mg/kg/injection, schedule: Q01DX009 (ip), vehicle: carboxymethylcellulose (CMC) 101 % of control and 103 % of control | dose: 200.0 mg/kg/injection, schedule: Q04DX002 (ip), vehicle: carboxymethylcellulose (CMC) 93 % of control and 96 % of control and 87 % of control | dose: 200.0 mg/kg/injection, schedule: Q04DX003 (ip), vehicle: carboxymethylcellulose (CMC) 107 % of control | [3] 106 % of control | dose: 400.0 mg/kg/injection, schedule: Q01DX009 (ip), vehicle: carboxymethylcellulose (CMC) 95 % of control and 101 % of control | dose: 400.0 mg/kg/injection, schedule: Q04DX002 (ip), vehicle: carboxymethylcellulose (CMC) 97 % of control and 98 % of control and 104 % of control | dose: 400.0 mg/kg/injection, schedule: Q04DX003 (ip), vehicle: carboxymethylcellulose (CMC) 98 % of control
